Results from patent publication US20090176714A1, “METHOD OF REDUCING THE EFFECTS OF ABeta AND COMPOSITIONS THEREFORE” (priority 2004, published 2009).

Columns and labels:
[1] = tested on: hippocampi of mice; assay: Stereotaxic injection into mouse hippocampus, quantitative real-time PCR; format: in vivo; conditions: estimated 1 nM intra-hippocampal concentration, 48 hours after injection
Description: Ten week old B6/SJL mice were stereotaxically injected on the right side of their hippocampi with sAPPα, a 10 amino acid fragment, or a scrambled 10-mer to an estimated 1 nM intra-hippocampal concentration. The contralateral sides were injected with artificial cerebrospinal fluid. Each injection consisted of […] of solution delivered over the period of 10 minutes. 48 hours after surgery, the mice were perfused with cold PBS, and their hippocampi were dissected and stored in stabilizing solution for subsequent RNA extraction.
RNA was extracted from hippocampal samples, DNase treated, and reverse transcribed. The cDNA was then used in quantitative real-time PCR performed with SYBR green on the Roche LightCycler system. Portions of each RNA sample were also used in no-RT traditional PCR reactions to validate the absence of DNA contamination.

[2] = tested on: human cortical slices; assay: TUNEL/NeuN staining of human cortical slices; format: cell-based
Description: β-amyloid1-42 and reverse Aβ (Aβ42-1) were obtained from BACHEM (Torrance, Calif.). These peptides were dissolved in 0.1% NH3OH at 222 μM. For treatments, Aβ or reverse Aβ was aggregated at 50 μM in Neurobasal media with B-27 supplement and 0.5 mM glutamine at 37° C. for 24 hours. Then, the slice culture media was removed, and the slices were treated with 1 mL of 25 μM or 50 μM Aβ, reverse Aβ, or vehicle for 24 hour. Human TTR (Calbiochem) was added to slices together with the Aβ treatment at final concentrations of 0.03, 0.3, and 3 μM TTR. sAPPα was obtained from Sigma (St. Louis, Mo.). Unless otherwise stated, all sAPPα treatments were performed at 1 nM 48 hours prior to the addition of Aβ. The 10 amino acid fragment of the carboxyl-terminal region of sAPPα (592-601 of APP695; SEVKMDAEFR was added according to the same protocol for sAPPα. Because a variable amount of tissue was obtained from each patient, not all treatments were performed on all patients.
Cortical slice cryosections were stained with terminal deoxynucleotidyl transferase-mediated, dUTP nick end labeling (TUNEL) and with an anti-NeuN antibody. Cells with DNA fragmentation were determined by the terminal deoxynucleotidyl transferase incorporation of fluorescein isothiocyanate (FITC)-12-dUTP into DNA (In Situ Cell Death Detection kit, Roche Biochem, Indianapolis, Ind.). At least 3 random images per slice were generated by confocal analysis at 600× magnification. The number of TUNEL positive, NeuN positive, and both TUNEL and NeuN positive cells were then quantified.

[3] = Aβ treatment, 1 subject, FIG. 6B

| Substance | Expression of IGFBP2 in treated vs control side of hippocampus ([1]; FIG. 8) | Expression of IGF2 in treated vs control side of hippocampus ([1]; FIG. 10) | DNA strand breaks as indicated by TUNEL ([2]; 50 μM Aβ) | Percent of neurons that were TUNEL positive (% TUNEL/NeuN) [2, 3] | Percent of total TUNEL positive cells (% TUNEL) [2, 3] |
| --- | --- | --- | --- | --- | --- |
| SEVKMDAEFR | induced an increase in expression | induced an increase in expression | – | – | – |
| β-amyloid1-42 [Aβ] | – | – | resulted in DNA strand breaks | increased | increased |
